This data set in a line: solubility of dye in dodecane non-polar solvent, with or without trimethylbenzene (TMB) improvement agent. It counts as physicochemical. As for the experimental part: For example, when a red dye (for example, the C.I. solvent red 164) is dissolved in a dodecane non-polar solvent, a solubility thereof is about 4 wt %.
For another example, when a blue dye (for example, the C.I. solvent blue 98) is dissolved in the dodecane non-polar solvent, a solubility thereof is about 8 wt %.

For the substance C.I. solvent blue 98, the solubility runs as follows: (dye dissolved in dodecane non-polar solvent added with trimethylbenzene (TMB) improvement agent) 21.5 wt %; (dye dissolved in dodecane non-polar solvent, no improvement agent) “about 8 wt %”.

Values taken from patent US8587857B2, “Electro-wetting display device and non-polar color solution thereof” (Industrial Technology Research Institute, priority 2010, dated 2013).
